Patent US20040226502A1, “Crystal structure of 2c-methyl-d-erythritol 2,4-cyclodiphosphate synthase” (priority 2001, published 2004)

Experiments:
[1] = target: T1, 2C-methyl-D-erythritol 2,4-cyclodiphosphate synthase (Escherichia coli, UniProt P62617); assay: Crystal soaking and 3D structure determination of ligand complexes; format: binding, E. coli; conditions: for affinity for the protein (in words): from crystals/structures subs, sub2 and cyt
T1 construct: His6 (from vector pQE30) (N); made in house; host or cells: E. coli XL1-Blue carrying pQEispF
T1 sequence (P62617 whole entry): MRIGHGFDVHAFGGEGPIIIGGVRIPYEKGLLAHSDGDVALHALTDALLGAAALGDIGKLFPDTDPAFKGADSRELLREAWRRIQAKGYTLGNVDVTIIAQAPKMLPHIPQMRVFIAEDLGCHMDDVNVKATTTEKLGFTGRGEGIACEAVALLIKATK
Experimental: The following substrate, substrate analoge and product complexes were determined in order to determine binding of these molecules to the synthase:
subop: a crystal soaked with 10 mM 4-diphosphocytidyl-2C-methyl-D-erythritol. The zinc atom the water or hydroxyl-group at the zinc is replaced by an oxygen of the beta-phosphate of the diphosphocytidyl-moiety.
subs: a crystal soaked with 10 mM 4-diphosphocytidyl-2C-methyl-D-erythritol 2-phosphate and 10 mM EDTA, that contains no zinc.
sub2: a crystal soaked with 10 mM 4-diphosphocytidyl-2C-methyl-D-erythritol 2-phosphate, that containes zinc and the products CMP and 2C-methyl-D-erythritol 2,4-cyclodiphosphate.
mgcdp2: a crystal soaked with 2 mM CDP and 5 mM MgCl2
cyt: a crystal soaked with 10 mM cytidine
These structures were determined using the nat2 structure as starting model. Initially a rigid body refinement was carried out followed by positional refinement. Then the substrate, substrate analoge or product molecules were build into the electron density of difference electron density maps, again followed by refinement of atom positions and B-factors.
Crystals containing the synthase and zinc were incubated for one hour with about 5 mM of a ligand in mother liquor containing 2M ammonium formate, 0.1M HEPES/NaOH at pH 7.0 and 20% D-(−)-2,3-butanediole (purchased from FLUKA) as a cryo-protectant. Crystals were mounted in a nylon-loop and flash frozen in a stream of nitrogen at 100Kelvin with an Oxford cryo stream. […] Diffraction data were measured at that temperature without any indication of radiation damage.
In order to obtain a crystal structure of 2C-methyl-D-erythritol 2,4-cyclodiphosphate synthase in complex with CDP, the synthase was crystallized according to example 8. A crystal of suitable size was then soaked in crystallization buffer (see example 8) further containing 5 mM CDP and 5 mM MgCl2.
The starting model for the determination of the structure of the complex was the structure of the synthase without a substrate analoge. […]

[2] = target: T1, 2C-methyl-D-erythritol 2,4-cyclodiphosphate synthase; format: biochemical; conditions: E. coli enzyme, compound as substrate
Experimental: Assay mixtures contain 50 mM potassium phosphate, pH 7.0, 2 mM DTT, 2 mM MgCl2, 1 mM 4-diphosphocytidyl-2C-methyl-D-erythritol 2-phosphate and protein in a total volume of 100 μl. The mixtures are incubated at 37° C. for 20 min. The reactions are terminated by adding EDTA at a final concentration of 4 mM. The samples are centrifuged and the supernatant is analyzed by HPLC using a column of Multospher 120 RP 18-AQ-5 (4.6×250 mm, CS-Chromatographic Service Gmbh) that has been equilibrated and run with Gradient No. 3 at a flow rate 1 ml min^−1 (see below). The effluent is monitored photometrically (270 nm).
One unit of 2C-methyl-D-erythritol 2,4-cyclodiphosphate synthase activity is defined as the amount of protein which produced 1 μmol min^−1 of CMP.
Column: Multospher 120 RP 18-5 AQ, 250×4.6 mm, particle size 5 μm (CS: Chromatographic Service GmbH, Langerwehe, Germany)

Nc1ccn([C@@H]2O[C@H](COP(=O)(O)OP(=O)(O)O)[C@@H](O)[C@H]2O)c(=O)n1 [CDP, cytidine diphosphate]
type of inhibition of the synthase (in words) ([1]; inferred from binding to a portion of the active site in the synthase-CDP complex): competitive inhibitor

Nc1ccn([C@@H]2O[C@H](CO)[C@@H](O)[C@H]2O)c(=O)n1 [cytidine]
affinity for the protein (in words) [1]: considerable affinity

C[C@@](CO)(OP(=O)(O)O)[C@H](O)COP(=O)(O)OP(=O)(O)OC[C@H]1O[C@@H](n2ccc(N)nc2=O)[C@H](O)[C@@H]1O [4-diphosphocytidyl-2C-methyl-D-erythritol 2-phosphate]
Km [2]: 37 µM | vmax [2]: 76 µmol/mg/min

Nc1ccn([C@@H]2O[C@H](COP(=O)(O)O)[C@@H](O)[C@H]2O)c(=O)n1 [CMP, cytidine monophosphate]
affinity for the protein (in words) [1]: considerable affinity
